Calls of active or inactive are those of the source.
Legend:
Type in all cases: functional
[1] = molecular target: Macrophage-stimulating protein receptor (Homo sapiens, UniProt Q04912); assay: Navigating the Kinome. Panel member name: MST1R
[2] = molecular target: Protein kinase C theta type (Homo sapiens, UniProt Q04759); assay: Navigating the Kinome. Panel member name: PRKCQ
[3] = molecular target: Serine/threonine-protein kinase D3 (Homo sapiens, UniProt O94806);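 also: determined within a kinase panel screen, with PRKCN as the panel member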
[4] = molecular target: Dual specificity tyrosine-phosphorylation-regulated kinase 1B (Homo sapiens, UniProt Q9Y463); assay: Navigating the Kinome. Panel member name: DYRK1B
[5] = molecular target: Tyrosine-protein kinase Fyn (Homo sapiens, UniProt P06241)
[6] = molecular target: Mitogen-activated protein kinase kinase kinase kinase 4 (Homo sapiens, UniProt O95819)
[7] = molecular target: Fibroblast growth factor receptor 1 (Homo sapiens, UniProt P11362)
[8] = molecular target: Mitogen-activated protein kinase kinase kinase kinase 2 (Homo sapiens, UniProt Q12851);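 also: measured as one member of a kinome-wide kinase panel, with MAP4K2 as the panel entry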
[9] = molecular target: Glycogen synthase kinase-3 alpha (Homo sapiens, UniProt P49840);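 also: GSK3A result taken from a broad kinome-wide kinase panel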
[10] = molecular target: Death-associated protein kinase 3 (Homo sapiens, UniProt O43293);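 also: measured as one member of a kinome-wide profiling panel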
[11] = molecular target: Vascular endothelial growth factor receptor 2 (Homo sapiens, UniProt P35968)
Aurora kinase A = Aurora kinase A (Homo sapiens, UniProt O14965);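 also: value from the Navigating the Kinome kinase panel profiling, panel entry STK6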
[12] = molecular target: Serine/threonine-protein kinase Chk1 (Homo sapiens, UniProt O14757);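 also: measured as one member of a kinome-wide kinase profiling panel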
[13] = molecular target: High affinity nerve growth factor receptor (Homo sapiens, UniProt P04629);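 also: NTRK1 tested as one member of a kinome-wide profiling panel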
[14] = molecular target: Dual specificity protein kinase CLK4 (Homo sapiens, UniProt Q9HAZ1)
[15] = molecular target: Vascular endothelial growth factor receptor 1 (Homo sapiens, UniProt P17948);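 also: measured within a kinome-wide profiling panel, FLT1 as the panel member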
[16] = molecular target: Inhibitor of nuclear factor kappa-B kinase subunit epsilon (Homo sapiens, UniProt Q14164); assay: Navigating the Kinome. Panel member name: IKBKE
[17] = molecular target: Insulin-like growth factor 1 receptor (Homo sapiens, UniProt P08069); assay: Navigating the Kinome. Panel member name: IGF1R
[18] = molecular target: Dual specificity protein kinase CLK2 (Homo sapiens, UniProt P49760)
[19] = molecular target: cAMP-dependent protein kinase catalytic subunit PRKX (Homo sapiens, UniProt P51817)
[20] = molecular target: Mitogen-activated protein kinase 8 (Homo sapiens, UniProt P45983);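 also: value comes from one member of a kinome-wide kinase profiling panel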
[21] = molecular target: Dual specificity mitogen-activated protein kinase kinase 1 (Homo sapiens, UniProt Q02750); assay: Navigating the Kinome. Panel member name: MAP2K1
[22] = molecular target: Receptor-type tyrosine-protein kinase FLT3 (Homo sapiens, UniProt P36888);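 also: FLT3 was tested as one member of a kinome-wide kinase panel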
[23] = molecular target: cAMP-dependent protein kinase catalytic subunit alpha (Homo sapiens, UniProt P17612)
[24] = molecular target: Serine/threonine-protein kinase TAO1 (Homo sapiens, UniProt Q7L7X3)
[25] = molecular target: Casein kinase I isoform alpha (Homo sapiens, UniProt P48729)
[26] = molecular target: Tyrosine-protein kinase receptor TYRO3 (Homo sapiens, UniProt Q06418);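 also: TYRO3 value obtained as one member of a kinome-wide profiling panel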
Chain of Tyrosine-protein kinase receptor TYRO3 (Q06418 whole entry): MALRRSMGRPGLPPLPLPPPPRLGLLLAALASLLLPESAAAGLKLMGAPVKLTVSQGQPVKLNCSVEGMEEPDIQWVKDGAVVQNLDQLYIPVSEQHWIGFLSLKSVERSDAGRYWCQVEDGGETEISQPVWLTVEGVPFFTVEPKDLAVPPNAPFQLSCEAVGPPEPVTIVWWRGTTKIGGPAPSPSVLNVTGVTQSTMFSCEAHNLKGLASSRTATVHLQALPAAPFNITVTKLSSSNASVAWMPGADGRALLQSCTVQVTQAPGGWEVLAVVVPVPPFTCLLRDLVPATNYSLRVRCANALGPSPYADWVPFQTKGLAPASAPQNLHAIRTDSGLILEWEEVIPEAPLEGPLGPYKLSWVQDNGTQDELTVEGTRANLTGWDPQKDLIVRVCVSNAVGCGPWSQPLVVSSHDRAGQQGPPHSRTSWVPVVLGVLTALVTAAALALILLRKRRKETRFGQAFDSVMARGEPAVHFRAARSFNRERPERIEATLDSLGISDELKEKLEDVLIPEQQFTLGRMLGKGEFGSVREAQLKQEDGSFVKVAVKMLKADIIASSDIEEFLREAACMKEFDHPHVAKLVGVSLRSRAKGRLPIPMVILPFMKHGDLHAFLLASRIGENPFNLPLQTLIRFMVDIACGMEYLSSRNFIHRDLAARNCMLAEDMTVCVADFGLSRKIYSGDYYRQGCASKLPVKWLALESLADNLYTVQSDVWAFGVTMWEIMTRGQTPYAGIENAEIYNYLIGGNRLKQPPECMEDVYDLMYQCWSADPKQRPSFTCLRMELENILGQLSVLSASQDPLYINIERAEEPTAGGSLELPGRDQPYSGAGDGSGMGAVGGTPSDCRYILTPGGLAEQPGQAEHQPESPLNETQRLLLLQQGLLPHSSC

[27] = molecular target: Mitogen-activated protein kinase 9 (Homo sapiens, UniProt P45984);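 also: value from a kinome panel profiling assay, MAPK9 panel entry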
[28] = molecular target: Glycogen synthase kinase-3 beta (Homo sapiens, UniProt P49841);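 also: value comes from a broad kinome profiling panel, with GSK3B as the panel member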
[29] = molecular target: Platelet-derived growth factor receptor alpha (Homo sapiens, UniProt P16234); assay: Navigating the Kinome. Panel member name: PDGFRA
[30] = molecular target: Tyrosine-protein kinase ABL1 (Homo sapiens, UniProt P00519)
Chain of Tyrosine-protein kinase ABL1 (P00519 whole entry): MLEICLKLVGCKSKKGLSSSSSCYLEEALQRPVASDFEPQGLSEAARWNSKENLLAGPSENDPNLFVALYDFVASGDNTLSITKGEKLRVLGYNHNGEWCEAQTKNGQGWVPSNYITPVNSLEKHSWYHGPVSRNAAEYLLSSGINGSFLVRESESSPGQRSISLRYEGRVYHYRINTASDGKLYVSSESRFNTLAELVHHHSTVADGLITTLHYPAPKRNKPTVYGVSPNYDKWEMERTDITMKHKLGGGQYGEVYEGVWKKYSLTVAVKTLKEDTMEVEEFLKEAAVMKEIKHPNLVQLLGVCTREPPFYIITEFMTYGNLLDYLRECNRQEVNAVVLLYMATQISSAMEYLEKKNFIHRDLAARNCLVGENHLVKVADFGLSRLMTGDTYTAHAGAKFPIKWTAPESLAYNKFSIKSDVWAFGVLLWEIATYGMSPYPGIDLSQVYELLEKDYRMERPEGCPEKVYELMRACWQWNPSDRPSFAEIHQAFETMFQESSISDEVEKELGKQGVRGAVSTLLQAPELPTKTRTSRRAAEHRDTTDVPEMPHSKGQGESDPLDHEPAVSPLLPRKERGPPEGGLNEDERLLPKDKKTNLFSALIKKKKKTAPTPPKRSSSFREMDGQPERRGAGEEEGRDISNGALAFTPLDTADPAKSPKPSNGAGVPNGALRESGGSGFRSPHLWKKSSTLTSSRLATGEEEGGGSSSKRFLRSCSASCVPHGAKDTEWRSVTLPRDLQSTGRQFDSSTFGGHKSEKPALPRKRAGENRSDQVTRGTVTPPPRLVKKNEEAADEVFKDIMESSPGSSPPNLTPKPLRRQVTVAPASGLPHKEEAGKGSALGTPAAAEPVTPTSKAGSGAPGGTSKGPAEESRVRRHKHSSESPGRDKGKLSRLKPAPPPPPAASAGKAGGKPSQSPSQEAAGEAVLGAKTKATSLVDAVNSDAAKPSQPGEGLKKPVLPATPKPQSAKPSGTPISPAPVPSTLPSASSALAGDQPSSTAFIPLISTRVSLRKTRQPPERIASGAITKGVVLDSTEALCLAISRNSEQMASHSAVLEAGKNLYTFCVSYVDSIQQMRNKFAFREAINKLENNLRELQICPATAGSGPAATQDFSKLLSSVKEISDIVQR

[31] = molecular target: Cyclin-dependent kinase 8 (Homo sapiens, UniProt P49336); assay: Navigating the Kinome. Panel member name: CDK8
[32] = molecular target: Tyrosine-protein kinase Lck (Homo sapiens, UniProt P06239);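 also: lck was assayed as one member of a kinase panel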
[33] = molecular target: BDNF/NT-3 growth factors receptor (Homo sapiens, UniProt Q16620);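 also: NTRK2 measured as one member of a broad kinome-wide kinase profiling panel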
LIM domain kinase 1 = LIM domain kinase 1 (Homo sapiens, UniProt P53667); assay: Navigating the Kinome. Panel member name: LIMK1
[34] = molecular target: Rho-associated protein kinase 1 (Homo sapiens, UniProt Q13464);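 also: measured within a broad kinome-wide panel profiling many kinases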
[35] = molecular target: Serine/threonine-protein kinase PAK 4 (Homo sapiens, UniProt O96013);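 also: value obtained within a kinome profiling panel in which PAK4 was one of the panel members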
[36] = molecular target: 5'-AMP-activated protein kinase catalytic subunit alpha-1 (Homo sapiens, UniProt Q13131)
Activin receptor type-1 = Activin receptor type-1 (Homo sapiens, UniProt Q04771); assay: Navigating the Kinome. Panel member name: ACVR1
[37] = molecular target: Serine/threonine-protein kinase TBK1 (Homo sapiens, UniProt Q9UHD2); assay: Navigating the Kinome. Panel member name: TBK1
[38] = molecular target: Macrophage colony-stimulating factor 1 receptor (Homo sapiens, UniProt P07333);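 also: value comes from the Navigating the Kinome screening panel, CSF1R member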
[39] = molecular target: Dual specificity tyrosine-phosphorylation-regulated kinase 1A (Homo sapiens, UniProt Q13627);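 also: measured against DYRK1A as one member of a broad kinome profiling panel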
[40] = molecular target: Tyrosine-protein kinase JAK3 (Homo sapiens, UniProt P52333)
[41] = molecular target: Platelet-derived growth factor receptor beta (Homo sapiens, UniProt P09619);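 also: value comes from a kinome panel, with PDGFRB tested as one panel member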
Activated CDC42 kinase 1 = Activated CDC42 kinase 1 (Homo sapiens, UniProt Q07912); assay: Navigating the Kinome. Panel member name: ACK1
[42] = molecular target: Leucine-rich repeat serine/threonine-protein kinase 2 (Homo sapiens, UniProt Q5S007);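 also: value from a broad kinome-wide panel profiling study in which LRRK2 was one of the kinases tested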
Chain of Leucine-rich repeat serine/threonine-protein kinase 2 (Q5S007 whole entry): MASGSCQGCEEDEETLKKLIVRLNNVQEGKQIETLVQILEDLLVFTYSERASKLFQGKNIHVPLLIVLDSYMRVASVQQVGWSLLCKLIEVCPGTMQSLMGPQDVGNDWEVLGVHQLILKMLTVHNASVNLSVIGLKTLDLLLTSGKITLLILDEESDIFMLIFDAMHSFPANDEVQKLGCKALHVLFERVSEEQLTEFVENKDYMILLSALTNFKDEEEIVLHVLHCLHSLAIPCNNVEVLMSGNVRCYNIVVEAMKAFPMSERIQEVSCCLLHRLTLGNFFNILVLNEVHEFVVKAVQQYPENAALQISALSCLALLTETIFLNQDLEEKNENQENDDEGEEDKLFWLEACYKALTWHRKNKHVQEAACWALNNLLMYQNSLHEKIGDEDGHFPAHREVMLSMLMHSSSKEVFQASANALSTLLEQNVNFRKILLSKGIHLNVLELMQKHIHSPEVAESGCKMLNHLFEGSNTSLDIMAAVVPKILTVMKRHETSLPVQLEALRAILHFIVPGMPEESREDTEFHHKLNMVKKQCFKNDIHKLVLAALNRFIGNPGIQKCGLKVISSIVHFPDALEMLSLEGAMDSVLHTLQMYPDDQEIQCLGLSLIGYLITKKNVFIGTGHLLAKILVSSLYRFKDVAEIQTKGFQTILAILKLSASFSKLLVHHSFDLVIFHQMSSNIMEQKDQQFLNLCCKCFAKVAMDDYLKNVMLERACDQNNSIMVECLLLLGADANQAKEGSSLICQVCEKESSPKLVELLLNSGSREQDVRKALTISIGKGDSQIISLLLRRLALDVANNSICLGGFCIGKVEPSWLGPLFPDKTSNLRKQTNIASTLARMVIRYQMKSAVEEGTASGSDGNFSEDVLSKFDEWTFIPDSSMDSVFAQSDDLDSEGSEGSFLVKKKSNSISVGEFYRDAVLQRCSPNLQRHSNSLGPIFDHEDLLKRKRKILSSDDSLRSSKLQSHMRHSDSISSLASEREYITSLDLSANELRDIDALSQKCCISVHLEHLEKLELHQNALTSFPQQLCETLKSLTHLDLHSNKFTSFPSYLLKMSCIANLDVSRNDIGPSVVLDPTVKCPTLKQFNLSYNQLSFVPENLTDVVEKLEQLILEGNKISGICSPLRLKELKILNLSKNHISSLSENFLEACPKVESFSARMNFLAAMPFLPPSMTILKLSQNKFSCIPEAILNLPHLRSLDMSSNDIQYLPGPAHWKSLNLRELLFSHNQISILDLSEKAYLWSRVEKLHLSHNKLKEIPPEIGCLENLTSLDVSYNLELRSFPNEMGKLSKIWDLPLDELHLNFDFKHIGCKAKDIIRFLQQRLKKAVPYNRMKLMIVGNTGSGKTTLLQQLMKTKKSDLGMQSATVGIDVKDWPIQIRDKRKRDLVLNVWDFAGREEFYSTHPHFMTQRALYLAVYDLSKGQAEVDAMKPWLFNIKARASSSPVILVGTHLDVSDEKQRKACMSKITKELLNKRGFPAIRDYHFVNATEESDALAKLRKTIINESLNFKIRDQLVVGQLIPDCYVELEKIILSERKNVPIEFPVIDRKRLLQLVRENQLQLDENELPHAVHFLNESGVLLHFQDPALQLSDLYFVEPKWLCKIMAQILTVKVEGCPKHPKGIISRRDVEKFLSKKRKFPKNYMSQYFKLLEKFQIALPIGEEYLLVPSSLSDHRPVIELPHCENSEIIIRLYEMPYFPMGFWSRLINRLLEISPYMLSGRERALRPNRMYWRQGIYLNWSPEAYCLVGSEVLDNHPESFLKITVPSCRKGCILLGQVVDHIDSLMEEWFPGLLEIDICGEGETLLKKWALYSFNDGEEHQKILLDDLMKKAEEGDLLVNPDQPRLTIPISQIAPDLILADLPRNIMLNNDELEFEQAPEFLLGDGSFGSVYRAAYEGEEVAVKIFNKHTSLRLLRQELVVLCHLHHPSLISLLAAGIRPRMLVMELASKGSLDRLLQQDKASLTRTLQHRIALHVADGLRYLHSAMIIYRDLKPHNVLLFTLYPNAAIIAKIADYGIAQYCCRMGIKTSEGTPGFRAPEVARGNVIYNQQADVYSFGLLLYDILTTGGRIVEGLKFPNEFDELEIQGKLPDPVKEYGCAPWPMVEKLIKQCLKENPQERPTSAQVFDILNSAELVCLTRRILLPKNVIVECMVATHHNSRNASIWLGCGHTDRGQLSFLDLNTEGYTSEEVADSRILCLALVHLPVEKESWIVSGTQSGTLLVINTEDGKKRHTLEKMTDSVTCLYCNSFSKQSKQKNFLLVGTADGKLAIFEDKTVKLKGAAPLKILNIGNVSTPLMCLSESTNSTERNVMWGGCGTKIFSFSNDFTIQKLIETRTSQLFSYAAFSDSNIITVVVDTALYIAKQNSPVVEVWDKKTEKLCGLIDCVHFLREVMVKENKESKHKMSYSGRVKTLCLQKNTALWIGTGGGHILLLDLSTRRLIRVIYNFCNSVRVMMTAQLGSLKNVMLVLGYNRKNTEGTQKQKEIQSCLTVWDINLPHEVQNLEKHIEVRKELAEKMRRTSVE

[43] = molecular target: Tyrosine-protein kinase BTK (Homo sapiens, UniProt Q06187)
[44] = molecular target: Cyclin-dependent kinase 9 (Homo sapiens, UniProt P50750);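 also: value from the CDK9 entry of a kinome-spanning kinase panel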
[45] = molecular target: Dual specificity mitogen-activated protein kinase kinase 2 (Homo sapiens, UniProt P36507); assay: Navigating the Kinome. Panel member name: MAP2K2
Chain of Dual specificity mitogen-activated protein kinase kinase 2 (P36507 whole entry): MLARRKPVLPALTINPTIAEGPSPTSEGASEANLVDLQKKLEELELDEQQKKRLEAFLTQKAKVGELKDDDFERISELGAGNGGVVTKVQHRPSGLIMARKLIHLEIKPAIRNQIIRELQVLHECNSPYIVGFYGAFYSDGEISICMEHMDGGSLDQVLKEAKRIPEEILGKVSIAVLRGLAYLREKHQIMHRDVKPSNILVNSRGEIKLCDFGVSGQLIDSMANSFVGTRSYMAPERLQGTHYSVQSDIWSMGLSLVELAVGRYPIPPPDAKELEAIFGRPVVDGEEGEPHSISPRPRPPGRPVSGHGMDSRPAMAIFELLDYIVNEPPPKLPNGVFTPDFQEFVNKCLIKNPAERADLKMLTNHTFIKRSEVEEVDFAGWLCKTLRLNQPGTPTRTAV

[46] = molecular target: Leukocyte tyrosine kinase receptor (Homo sapiens, UniProt P29376); assay: Navigating the Kinome. Panel member name: LTK
[47] = molecular target: ALK tyrosine kinase receptor (Homo sapiens, UniProt Q9UM73);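 also: ALK tested as one member of a kinase panel screen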
[48] = molecular target: Calcium/calmodulin-dependent protein kinase type II subunit alpha (Homo sapiens, UniProt Q9UQM7); assay: Navigating the Kinome. Panel member name: CAMK2A
[49] = molecular target: Ribosomal protein S6 kinase alpha-3 (Homo sapiens, UniProt P51812);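 also: measured within a kinome-wide profiling panel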
Focal adhesion kinase 1 = Focal adhesion kinase 1 (Homo sapiens, UniProt Q05397);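 also: measured as one member of a kinome panel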
[50] = molecular target: Cyclin-dependent kinase 7 (Homo sapiens, UniProt P50613);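 also: value comes from a kinome-wide kinase profiling panel in which CDK7 is one member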
Aurora kinase B = Aurora kinase B (Homo sapiens, UniProt Q96GD4)
[51] = molecular target: Tyrosine-protein kinase JAK2 (Homo sapiens, UniProt O60674);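 also: JAK2 tested as one member of a kinase panel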
[52] = molecular target: Serine/threonine-protein kinase pim-1 (Homo sapiens, UniProt P11309)
[53] = molecular target: Serine/threonine-protein kinase Nek2 (Homo sapiens, UniProt P51955)

- Ki [1]: 631 nM (active)
- Ki [2]: 794 nM (active)
- Ki [3]: 2000 nM (active)
- Ki [4]: 63.1 nM (active)
- Ki [5]: 794 nM (active)
- Ki [6]: > 5010 nM (inactive)
- Ki [7]: 158 nM (active)
- Ki [8]: 398 nM (active)
- Ki [9]: 316 nM (active)
- Ki [11]: 1580 nM (active)
- Ki (Aurora kinase A): 158 nM (active)
- Ki [12]: 398 nM (active)
- Ki [13]: 126 nM (active)
- Ki [14]: 39.8 nM (active)
- Ki [15]: > 3980 nM (inactive)
- Ki [16]: 2510 nM (active)
- Ki [17]: 398 nM (active)
- Ki [18]: > 3980 nM (inactive)
- Ki [19]: 631 nM (active)
- Ki [20]: 631 nM (active)
- Ki [21]: 398 nM (active)
- Ki [22]: 316 nM (active)
- Ki [23]: 100 nM (active)
- Ki [24]: 2510 nM (active)
- Ki [25]: 794 nM (active)
- Ki [26]: 100 nM (active)
- Ki [27]: 398 nM (active)
- Ki [28]: 100 nM (active)
- Ki [29]: 1000 nM (active)
- Ki [30]: 1000 nM (active)
- Ki [31]: 251 nM (active)
- Ki [32]: 1580 nM (active)
- Ki [33]: 794 nM (active)
- Ki (LIM domain kinase 1): 501 nM (active)
- Ki [34]: 1000 nM (active)
- Ki [35]: 794 nM (active)
- Ki [36]: 398 nM (active)
- Ki (Activin receptor type-1): > 3980 nM (inactive)
- Ki [37]: > 3160 nM (inactive)
- Ki [38]: 251 nM (active)
- Ki [39]: 126 nM (active)
- Ki [40]: 631 nM (active)
- Ki [41]: 316 nM (active)
- Ki (Activated CDC42 kinase 1): 631 nM (active)
- Ki [42]: > 2510 nM (inactive)
- Ki [43]: 1580 nM (active)
- Ki [44]: 50.1 nM (active)
- Ki [45]: 200 nM (active)
- Ki [46]: 79.4 nM (active)
- Ki [47]: 631 nM (active)
- Ki [48]: 158 nM (active)
- Ki [49]: 501 nM (active)
- Ki (Focal adhesion kinase 1): 3980 nM (active)
- Ki [50]: 631 nM (active)
- Ki (Aurora kinase B): 501 nM (active)
- Ki [51]: 501 nM (active)
- Ki [52]: 79.4 nM (active)
- Ki [53]: 501 nM (active)
Structure (SMILES): CCC(=O)Nc1ccc(C(=O)N2CCNCC2)c(O)c1
- Ki [10]: 794 nM (active)

Reference: ChEMBL document CHEMBL1201862, “PubChem BioAssay data set” (2004)
